{"source": "patent US20250109127A1", "about": "“METHODS OF USE OF PHENOXYPROPYLAMINE COMPOUNDS TO TREAT DEPRESSION” (Minerva Neurosciences, Inc., priority 2013, published 2025)", "key": {"[1]": {"system": "animals exposed to chronic mild stress", "assay": "Novel object recognition test after CMS and treatment withdrawal", "assay_type": "in vivo, rat", "description": "After completion of the administration and withdrawal period, all control and stressed animals were placed in an open field (100 cm in diameter, 35 cm high) and allowed to explore two identical objects (cylinder-shaped object with walls painted white, 7 cm in diameter, 11 cm high) for the time required to complete 15 s of exploration of either object. For the retention trial conducted one hour later, one of the objects presented previously was replaced with a novel object (prism-shaped object with walls painted black, 5 cm wide, 14 cm high). Rats were returned to the open field for 5 min and the duration of exploration (i.e. sitting in close proximity to the objects, sniffing or touching them) of each object was measured separately by a trained observer. The data were calculated according to the following formula: [time of novel object exploration divided by time of novel plus familiar object exploration multiplied by 100]. The CMS and NOR data were analyzed by multiple analyses of variance with three between-subjects factors (stress/control, drug treatments and intakes in successive sucrose tests). The Fisher's LSD test was used for the post-hoc comparisons of means."}, "5-HTT": {"target": "5-HTT (Homo sapiens, UniProt P31645)", "sequence (P31645 whole entry, species assumed)": "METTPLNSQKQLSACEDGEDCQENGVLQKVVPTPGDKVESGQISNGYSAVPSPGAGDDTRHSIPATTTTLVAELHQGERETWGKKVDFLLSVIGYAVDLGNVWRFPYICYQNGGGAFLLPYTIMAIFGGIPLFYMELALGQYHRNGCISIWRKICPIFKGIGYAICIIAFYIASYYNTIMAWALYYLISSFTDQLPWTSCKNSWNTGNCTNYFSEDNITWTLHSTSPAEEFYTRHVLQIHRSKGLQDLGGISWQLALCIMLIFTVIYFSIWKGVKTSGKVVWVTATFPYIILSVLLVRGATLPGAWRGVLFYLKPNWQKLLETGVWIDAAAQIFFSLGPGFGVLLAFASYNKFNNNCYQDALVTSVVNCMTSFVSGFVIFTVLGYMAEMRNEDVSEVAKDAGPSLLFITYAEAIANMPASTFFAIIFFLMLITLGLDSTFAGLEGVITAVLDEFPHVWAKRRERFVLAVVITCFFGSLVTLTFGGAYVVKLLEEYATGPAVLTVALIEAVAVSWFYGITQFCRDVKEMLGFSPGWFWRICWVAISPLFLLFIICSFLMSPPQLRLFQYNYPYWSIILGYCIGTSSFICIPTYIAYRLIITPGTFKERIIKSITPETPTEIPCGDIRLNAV", "assay": "Receptor binding, 5-HTT"}, "5-HT1A": {"target": "T1, 5-HT1A (Homo sapiens, UniProt P08908)", "T1 sequence (P08908 1-422)": "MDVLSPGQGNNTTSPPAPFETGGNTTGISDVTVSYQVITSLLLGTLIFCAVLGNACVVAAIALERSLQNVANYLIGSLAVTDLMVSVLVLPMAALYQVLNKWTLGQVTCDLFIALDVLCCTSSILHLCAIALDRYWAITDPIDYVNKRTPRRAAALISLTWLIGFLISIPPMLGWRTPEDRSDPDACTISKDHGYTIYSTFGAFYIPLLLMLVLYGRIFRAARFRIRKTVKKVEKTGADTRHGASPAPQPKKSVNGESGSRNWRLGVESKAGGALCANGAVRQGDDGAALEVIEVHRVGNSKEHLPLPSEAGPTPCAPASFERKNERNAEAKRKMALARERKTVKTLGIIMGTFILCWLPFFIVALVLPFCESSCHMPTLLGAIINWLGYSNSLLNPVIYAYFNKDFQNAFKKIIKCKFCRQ", "assay": "Receptor binding, 5-HT1A"}}, "note": "Structures can show the parent of a compound that is named as a salt."}
{"smiles": "Cc1nnc(-c2cc3c(OC[C@@H](O)CN4CCC(c5ccc(Cl)c(Cl)c5)CC4)cccc3o2)o1", "note": "[SON-117, (S)-1-(4-(3,4-dichlorophenyl)piperidino)-3-(2-(5-methyl-1,3,4-oxadiazol-2-yl)benzo(b)furan-4-yloxy)-2-propanol hydrochloride]", "values": [{"measurement": "recognition index in stressed animals", "setting": "[1]; SON-117 0.001, 0.01 and 0.1 mg/kg, one week after withdrawal", "result": "restored"}, {"measurement": "effect against the CMS-induced deficit in the novel object recognition", "setting": "[1]; SON-117 1 mg/kg, stressed animals", "result": "ineffective"}, {"measurement": "recognition index in control animals", "setting": "[1]; SON-117 all doses (0.001-1 mg/kg IP), one week after withdrawal", "result": "no significant effect"}, {"measurement": "affinity, 5-HTT binding", "setting": "5-HTT", "result": "high affinity"}, {"measurement": "affinity, 5-HT1A receptor binding", "setting": "5-HT1A", "result": "high affinity"}]}
